The data set in a line: Degradation of omeprazole (PPI) by stomach acid when combined with buffering agent and/or protein component (FIGS. 1-6). In kind it is physicochemical. Particulars: 40 mg omeprazole with 800 mg aluminum glycinate and 800 mg sodium bicarbonate (20:1 each); FIGS. 5 and 6; compared with sodium bicarbonate and omeprazole alone (FIGS. 3 and 4). As to the method:
FIG. 2 is a line graph illustrating the degradation of 40 mg omeprazole when it is administered with 800 mg of L-carnosine and 800 mg sodium bicarbonate (20:1 ratio of L-carnosine to omeprazole and sodium bicarbonate to omeprazole). FIG. 4 is a line graph illustrating the degradation of 40 mg omeprazole when it is administered with 1600 mg sodium bicarbonate (40:1 ratio). FIG. 6 is a line graph illustrating the degradation of 40 mg omeprazole when it is administered with 800 mg of aluminum glycinate and 800 mg sodium bicarbonate (20:1 ratio of aluminum glycinate to omeprazole and sodium bicarbonate to omeprazole).

These results are taken from patent US20090023771A1, “PHARMACEUTICAL COMPOSITION COMPRISING A PROTON PUMP INHIBITOR AND PROTEIN COMPONENT” (The Curators of the University of Missouri, priority 2007, published 2009).

For the compound `COc1ccc2[nH]c([S+]([O-])Cc3ncc(C)c(OC)c3C)nc2c1` (stereo not shown) [omeprazole], the “degradation of the omeprazole” value was “immediate degradation”.
